Results reported in patent US4599204A, “Oxalylamides useful as dental antiplaque agents and inhibitors of connective tissue destruction” (American Cyanamid Company, priority 1985, dated 1986).
Structures can show the parent of a compound that is named as a salt.

Tests used:
[1] = tested on: collagenase; details: literature / U.S. Pat. No. 4,297,372; cited from earlier work
[2] = target: T1, human skin fibroblast collagenase (Homo sapiens, UniProt P03956); assay: Collagenase Assay, Test Code 006: degradation of 14C-labeled native collagen fibrils by collagenase; type: biochemical; details: ratio of weight (μg) for 50% inhibition over that of 6,6'-[ureylenebis(m-phenylenecarbonylimino)]bis[4-hydroxy-2-naphthalenesulfonic acid]disodium salt; test conc.: 30 μg/ml; 37° C., 16 hours; >1 = less active
T1 construct: endogenous in cells; host or cells: human skin fibroblasts
T1 sequence (P03956 100-469): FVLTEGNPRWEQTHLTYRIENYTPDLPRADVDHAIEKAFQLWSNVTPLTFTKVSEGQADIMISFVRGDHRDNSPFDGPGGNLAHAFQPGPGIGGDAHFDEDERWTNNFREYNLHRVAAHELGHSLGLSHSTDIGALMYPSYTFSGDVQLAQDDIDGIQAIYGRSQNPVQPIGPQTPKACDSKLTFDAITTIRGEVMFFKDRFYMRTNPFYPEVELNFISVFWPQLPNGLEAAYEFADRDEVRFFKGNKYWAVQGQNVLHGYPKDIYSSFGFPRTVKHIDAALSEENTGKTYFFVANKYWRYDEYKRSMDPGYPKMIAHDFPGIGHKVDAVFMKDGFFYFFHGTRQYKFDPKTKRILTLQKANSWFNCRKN
Protocol: (i) Collagenase Assay--Test Code 006
A collagenase assay was performed by a modification of the method of Harper, et al., Biochem., 10, 3035 (1971). In a typical assay (total volume of 0.45 ml), 100 μl of the activated enzyme was added to the ^14 C-labeled collagen fibrils (250 μl) followed by 100 μl of 50 mM cacodylate, pH 7.4, containing 5 mM calcium chloride. After incubation at 37° C. for 16 hours, the tubes were centrifuged in a Beckman microfuge for five minutes at full speed. An aliquot (200 μl) of the supernatant, representing collagenase digestion products of the fibril, was assayed for radioactivity. The effect of the test compound on collagen degradation by collagenase was examined as follows:
Varying concentrations of the test compound (in distilled water) were added to the assay tubes containing active collagenase (total volume 450 μl) and after 16 hours the amount of radioactivity in the supernatant was determined. Appropriate blanks and trypsin controls were run in parallel.
The result is expressed as an ID50 collagenase value which represents a ratio of the weight (μg) of the representative compound required for 50% inhibition of collagenase over the weight (μg) of 6,6,-[ureylenebis(m-phenylenecarbonylimino)]bis[4-hydroxy-2-naphthalenesulfonic acid]disodium salt required for 50% inhibition of collagenase.

[3] = Binding (competition) assay with 14C-6,6'-[ureylenebis(m-phenylenecarbonylimino)]bis[4-hydroxy-2-naphthalenesulfonic acid]disodium salt on tooth powder; details: relative to 6,6'-[ureylenebis(m-phenylenecarbonylimino)]bis[4-hydroxy-2-naphthalenesulfonic acid]disodium salt; 1 mg tooth powder, PBS, 37° C., 60 minutes; >1 = less efficient
From the text: Using (radioactive) ^14 C-6,6'-[ureylenebis(m-phenylenecarbonylimino)]bis[4-hydroxy-2-naphthalenesulfonic acid]disodium salt a binding (competition) assay procedure is established which involves an insoluble substrate such as tooth powder which will bind the ^14 C-6,6'-[ureylenebis(m-phenylenecarbonylimino)]bis[4-hydroxy-2-naphthalenesulfonic acid]disodium salt. The amount of ^14 C-6,6'-[ureylenebis(m-phenylenecarbonylimino)]bis[4-hydroxy-2-naphthalenesulfonic acid]disodium salt bound is determined by washing away the unbound radioactive compound and counting CPM (counts per minute) of the insoluble tooth powder/^14 C-6,6'-[ureylenebis(m-phenylenecarbonylimino)]bis[4-hydroxy-2-naphthalenesulfonic acid]disodium salt complex. […] The inhibiting effect of the test compound on binding compared to non-radioactive 6,6'-[ureylenebis(m-phenylenecarbonylimino)]bis[4-hydroxy-2-naphthalenesulfonic acid]disodium salt was determined as follows: A one mg amount of tooth powder was incubated in one ml of phosphate buffered saline (PBS) with 10 μg of ^14 C-6,6'-[ureylenebis(m-phenylenecarbonylimino)]bis[4-hydroxy-2-naphthalenesulfonic acid]disodium salt and varying dose amounts (ranging from 0 to 2 mg) of the same cold (non-radioactive) compound. […]

[4] = Binding to insoluble collagenous structures
[5] = tested on: corneal ulceration; details: alkali burned rabbit, applied to the eye; cited from earlier work
[6] = mechanistic studies; cited from earlier work
[7] = tested on: corneal ulceration; details: human; cited from earlier work

Molecule: O[C@H](CS)[C@H](O)CS (racemic) [dithiothreitol]
- collagenase inhibition (in words) [1]: collagenase inhibitors

Molecule: c1cnc2c(c1)ccc1cccnc12 [1,10-phenanthroline]
- collagenase inhibition (in words) [1]: collagenase inhibitors

Molecule: O=C(Nc1cccc(C(=O)Nc2ccc3cc(S(=O)(=O)O)cc(O)c3c2)c1)C(=O)Nc1cccc(C(=O)Nc2ccc3cc(S(=O)(=O)O)cc(O)c3c2)c1 [6,6'-[Oxalylbis(imino-m-phenylenecarbonylimino)]bis-[4-hydroxy-2-naphthalenesulfonic acid]disodium salt]
- ID50 Collagenase Ratio [2]: 1.10
- ID50 Binding Ratio [3]: 1.00

Molecule: O=C(Nc1cccc(C(=O)Nc2ccc3cc(S(=O)(=O)O)cc(O)c3c2)c1)Nc1cccc(C(=O)Nc2ccc3cc(S(=O)(=O)O)cc(O)c3c2)c1 [6,6'-[ureylenebis(m-phenylenecarbonylimino)]bis[4-hydroxy-2-naphthalenesulfonic acid]disodium salt]
- binding to insoluble collagenous structures [4]: will bind to insoluble collagenous structures such as teeth, dentin, gingiva and the like
- character of binding (saturability, reversibility) [4]: saturable and reversible
- collagenase inhibition (in words) [1]: established as an inhibitor of the degradation of collagen

Molecule: O=C([O-])CN(CCN(CC(=O)[O-])CC(=O)[O-])CC(=O)[O-].[Ca+2].[Ca+2] [Calcium ethylenediaminetetraacetate]
- reduction of frequency of ulceration [5]: reduce the frequency of ulceration

Molecule: F [Fluoride]
- binding to enamel [6]: binds to enamel

Molecule: Cc1ccc(C(=O)Nc2ccc(S(=O)(=O)O)c3cc(S(=O)(=O)O)cc(S(=O)(=O)O)c23)cc1NC(=O)c1cccc(NC(=O)Nc2cccc(C(=O)Nc3cc(C(=O)Nc4ccc(S(=O)(=O)O)c5cc(S(=O)(=O)O)cc(S(=O)(=O)O)c45)ccc3C)c2)c1 [Suramin]
- collagenase inhibition (in words) [1]: not inhibiting the action of collagenase

Molecule: CC(=O)N[C@@H](CS)C(=O)O [acetylcysteine]
- reduction of frequency of ulceration [5]: reduce the frequency of ulceration
- effectiveness in treatment of acute and chronic corneal ulceration [7]: effective in the treatment of acute and chronic corneal ulceration

Molecule: N[C@@H](CS)C(=O)O [cysteine]
- collagenase inhibition (in words) [1]: collagenase inhibitors
- effectiveness in treatment of acute and chronic corneal ulceration [7]: effective in the treatment of acute and chronic corneal ulceration

Molecule: Cc1cc(-c2ccc(/N=N/c3c(S(=O)(=O)O)cc4cc(S(=O)(=O)O)cc(N)c4c3O)c(C)c2)ccc1/N=N/c1c(S(=O)(=O)O)cc2cc(S(=O)(=O)O)cc(N)c2c1O [trypan blue]
- collagenase inhibition (in words) [1]: inhibiting the activity of collagenase, or a proteinase contaminant in the collagenase preparation

Molecule: sodium auriothiomalate
- collagenase inhibition (in words) [1]: collagenase inhibitors

Molecule: α2 -macroglobulin: Naturally occurring collagenase inhibitors include the serum components α2 -macroglobulin
- collagenase inhibition (in words) [1]: collagenase inhibitors
